These results are taken from US12173309B2, “Compounds for increasing genome editing efficiency” (Max-Planck-Gesellschaft zur Förderung der Wissenschaften …, priority 2017, dated 2024).

This assay has as its system 409-B2 iCRISPR-Cas9D10A iPSCs. In words: Precise genome editing (PGE) efficiency with iCRISPR Cas9D10A double nicking and ssODN donors, Illumina sequencing/CRISPResso. Type of assay: cell-based, human. To be noted: Cas9D10A; for PGE increase (mean change vs control): 20 μM NU7026, 0.01 μM TSA, 0.5 μM MLN4924, 5 μM NSC 15520, CRISPY mix = all four. How it is done: FIG. 1: Genome editing and analysis flowchart. iCRISPR 409-B2 iPSCs are treated with 2 μg/ml doxycycline at least for 2 days to induce Cas9 or Cas9D10A expression. Reverse transfection with RNAiMAX, gRNA (7.5 nM each), ssODN (10 nM) and the small molecules to be evaluated is carried out in a 96 well plate for 1 day. The amount of cells used gives ˜80% confluency. Cells are then expanded for 3 days with regular media change. After harvest follows DNA extraction, PCR amplification of targeted loci, Illumina sequencing and CRISPResso (Pinello et al. 2016) sequence analysis for amount of indels and precise genome editing.
Cells were incubated with media containing 2 μg/ml doxycycline (Clontech, 631311) 2 days prior to lipofection. Lipofection (reverse transfection) was done using the alt-CRISPR manufacturer's protocol (IDT) with a final concentration of 7.5 nM of each gRNA and 10 nM of the respective ssODN. In brief, 0.75 μl RNAiMAX (Invitrogen, 13778075) and the respective oligonucleotides were separately diluted in 25 μl OPTI-MEM (Gibco, 1985-062) each and incubated at room temperature for 5 min. Both dilutions were mixed to yield 50 μl of OPTI-MEM including RNAiMAX, gRNAs and ssODNs. The lipofection mix was incubated for 20-30 min at room temperature. During incubation cells were dissociated using EDTA for 5 min and counted using the Countess Automated Cell Counter (Invitrogen). The lipofection mix, 100 μl containing 25.000 dissociated cells in mTeSR1 supplemented with Y-27632, 2 μg/ml doxycycline and the respective small molecule(s) to be tested were throughoutly mixed and put in one well of a 96 well covered with Matrigel Matrix (Corning, 35248). Media was exchanged to regular mTeSR1 media after 24 hours.
Three days after lipofection cells were dissociated using Accutase (SIGMA, A6964), pelleted, and resuspended in 15 μl QuickExtract (Epicentre, QE0905T). Incubation at 65° C. for 10 min, 68° C. for 5 min and finally 98° C. for 5 min was performed to yield ssDNA as a PCR template. Primers for each targeted loci of CALD1, KATNA1 and SLITRK1 containing adapters for Illumina sequencing were ordered from IDT (Coralville, USA). PCR was done in a T100 Thermal Cycler (Bio-Rad) using the KAPA2G Robust PCR Kit (Peqlab, 07-KK5532-03) with supplied buffer B and 3 μl of cell extract in a total volume of 25 μl. The thermal cycling profile of the PCR was: 95° C. 3 min; 34×(95° 15 sec, 65° C. 15 sec, 72° C. 15 sec); 72° C. 60 sec. P5 and P7 Illumina adapters with sample specific indices were added in a second PCR reaction (Kircher et al. 2012) using Phusion HF MasterMix (Thermo Scientific, F-531L) and 0.3 μl of the first PCR product. The thermal cycling profile of the PCR was: 98° C. 30 sec; 25× (98° 10 sec, 58° C. 10 sec, 72° C. 20 sec); 72° C. 5 min. Amplifications were verified by size separating agarose gel electrophoresis using EX gels (Invitrogen, G4010-11). The indexed amplicons were purified using Solid Phase Reversible Immobilization (SPRI) beads (Meyer, Kircher 2010). Double-indexed libraries were sequenced on a MiSeq (Illumina) giving paired-end sequences of 2×150 bp. After base calling using Bustard (Illumina) adapters were trimmed using leeHom (Renaud et al. 2014).
CRISPresso (Pinello et al. 2016) was used to analyse sequencing data from CRISPR genome editing experiments for percentage of wildtype, targeted nucleotide substitutions (TNS), indels and mix of TNS and indels. Parameters used for analysis were ‘-w 20’, ‘--min_identity_score 70’ and ‘--ignore_substitutions’ (analysis was restricted to amplicons with a minimum of 70% similarity to the wildtype sequence and to a window of 20 bp from each gRNA; substitutions were ignored, as sequencing errors would be falsely characterized as NHEJ-events). Sequencing data from colonies after single cell seeding (FIGS. 3B and C) was further analyzed by evaluating the actual read sequences using SAMtools. Clonal colonies were differentiated from mixed colonies using sequence read proportions. […]

Molecules are shown by their SMILES.

Regarding `O=c1cc(N2CCOCC2)oc2c1ccc1ccccc12` [NU7026], the “PGE increase (mean change vs control)” value stood at 1.5 fold (CALD1), 2.6 fold (KATNA1) and 2.5 fold (SLITRK1). Also, the “higher PGE frequency than without the molecules” value (pooled across CALD1, KATNA1, SLITRK1 (FIG. 5A), p<0.001) is recorded as 2.3 fold.

For the molecule `NS(=O)(=O)OC[C@@H]1C[C@@H](n2ccc3c(N[C@H]4CCc5ccccc54)ncnc32)C[C@@H]1O` [MLN4924, Pevonedistat], the “PGE increase (mean change vs control)” value runs as follows: (CALD1) 1.2 fold; (KATNA1) 1.1 fold; (SLITRK1) 1.3 fold. The “additional increase in PGE on addition to the mix of NU7026 and TSA” value (0.5 μM MLN4924, p<0.01) was found to be 1.3 fold.

For the molecule `CC(C)C1=CC23CCC4C(C)(C(=O)O)CCCC4(C)C2CC1C(C(=O)O)C3C(=O)O` (stereo not drawn) [NSC 15520, Fumaropimaric acid], the “PGE increase (mean change vs control)” value (CALD1) came to 1.4 fold, the “PGE increase (mean change vs control)” value (KATNA1) is recorded as “no effect” and the “PGE increase (mean change vs control)” value (SLITRK1) is “no effect”. Further, for the setting “all loci, 5 μM NSC 15520, then 1 μM NSC 19630, 20 μM AICAR, 1 μM RS-1 (FIG. 5A)”, the “effect on PGE of further addition to the mix of NU7026, TSA and MLN4924” value is “slightly increased”.
